Data reported in patent US20050209157A1, “Short bioactive peptides and methods for their use” (priority 2001, published 2005).
Like-named read-outs stand apart in the source and are kept apart here. No end group written: not given here.

Experiments:
in vitro [1] = type: cell-based, human; settings: human, human red blood cells
SW480 = assay: Anti-cancer assay, MTT, LD50; type: cell-based; settings: SW480 colon adenocarcinoma line, 24 hours with peptide
Text: (§1) Numbers are LD50 values (μg/mL).

MCF7 = assay: Anti-cancer assay, MTT, LD50; type: cell-based; settings: for LD50 MCF7: MCF7 breast adenocarcinoma line, MTT, 24 hours with peptide; for MCF7 LD50: Table 41, lower part
Text: as §1

HeLaS3 = assay: Anti-cancer assay, MTT, LD50; type: cell-based; settings: 24 hours with peptide, cervical carcinoma
Text: as §1

H1299 = assay: Anti-cancer assay, MTT, LD50; type: cell-based; settings: 24 hours with peptide, lung large cell carcinoma
Text: as §1

BMKC = assay: Anti-cancer assay, MTT, LD50; type: cell-based; settings: BMKC cloned melanoma line, 24 hours with peptide
Text: as §1

PC3 = assay: Anti-cancer assay, MTT, LD50; type: cell-based; settings: 24 hours with peptide, prostate adenocarcinoma
Text: as §1

P. aeruginosa = type: cell-based, Pseudomonas aeruginosa; settings: P. aeruginosa H744; MIC of nalidixic acid with peptide at ¼ MIC
In short: (§2)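 Efflux-mutant strains were tested with two-fold serial dilutions of chloramphenicol or nalidixic acid, alone and with peptide held at ¼ of its own MIC.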

P. aeruginosa H374 = type: cell-based, Pseudomonas aeruginosa; settings: for FIC Index: 0.5 or less = synergy
In short: as §2

P. aeruginosa H774 = type: cell-based, Pseudomonas aeruginosa; settings: P. aeruginosa H744; nalidixic acid + peptide at ¼ MIC; 0.5 or less = synergy
In short: as §2

WI38 = settings: MTT, 24 hours with peptide; normal fibroblast line
in vitro [2] = settings: human, WI38 normal lung fibroblast cells
[3] = Solubility of peptides in sheep serum; type: physicochemical; settings: sheep serum, […], 70% serum
Pseudomonas aeruginosa = assay: Serum inactivation of peptides, serum MIC; type: cell-based; settings: for MIC 30 min treatment: sheep serum 37° C. 30 minutes; for MIC 2 hr treatment: sheep serum 37° C. 2 hours
Procedure: Subsequently, the serum MICs against Pseudomonas aeruginosa were conducted to determine extent of serum inactivation of the peptides.

[4] = system: clinical tobramycin resistant strain 960890198-3c; assay: Activity against drug resistant strains; type: cell-based; settings: clinical tobramycin resistant strain; Table 47
Procedure: (§3) Peptides were assayed for their activity against tobramycin sensitive and resistant strains.

[5] = system: tobramycin sensitive (ts) Pseudomonas ATCC 27853; assay: Activity against drug resistant strains; type: cell-based; settings: tobramycin sensitive strain; Table 47
Procedure: as §3

[6] = system: Pseudomonas aeruginosa ATCC 9027; assay: Antimicrobial assay I, MIC by OD measurement; type: cell-based; settings: 37° C. for 24 hours, absorbance 620 nm
[7] = system: Staphylococcus aureus ATCC 6538; assay: Antimicrobial assay I, MIC by OD measurement; type: cell-based; settings: 37° C. for 24 hours, absorbance 620 nm
[8] = system: yeast (Saccharomyces cerevisiae); assay: Antimicrobial assay I, yeast assay in RPMI 1640; type: cell-based; settings: RPMI 1640 media
[9] = Leukocyte (WBC) inhibition, toxicity LD50; type: cell-based, human; settings: male, human, human leukocytes (buffy coat cells, mostly PBMCs); Table 41, lower part
Procedure: In vitro viability of human leukocyte cells in the presence of different peptides at different concentrations was determined by an Alamar Blue protocol. Alamar Blue (Promega, Madison, Wis.) is an indicator dye, formulated to measure quantitatively the proliferation and cytotoxicity of the cells. The dye consists of an oxidation-reduction (redox) indicator that yields a calorimetric change and a fluorescent signal in response to cellular metabolic activity.
Assay protocol: Blood from a human was drawn and centrifuged at 1500 rpm for 15 minutes at room temperature. The buffy coat cells at the plasma-red blood cell interface were aspirated. Buffy coat cells (mainly lymphocyte cells) were then transferred into 15 ml centrifuge tubes containing 5 ml of RPMI-1640 medium+10% Fetal Bovine Serum (Gibco, Grand Island, N.Y.). Additional medium was added to the tubes to bring the volume up to 10 ml. The buffy coat suspension was then carefully layered on 5 ml of Histopaque (Sigma Chemical Co., St. Louis, Mo.) and centrifuged at 1500 rpm for 30 minutes at room temperature. The interface which is mostly PBMCs (peripheral mononuclear cells) was aspirated and transferred to a 15 ml conical centrifuge tube and, resuspended in 2 ml cold RPMI-1640 and brought up to 15 ml with cold RPMI-1640 medium. Cells were centrifuged at 1500 rpm for 10 minutes. The supernatant was then aspirated and discarded. The cell pellet was re-suspended in 1 ml of cold RPMI 1640 and brought up to 15 ml with RPMI medium. This step was repeated twice, except that in the last step, the cells were resuspended with 1 ml of cold RPMI-1640 medium and cell counts were performed with a hemocytometer according to the Sigma cell culture catalogue.
Pokewood mitogen was used as a control along with positive and negative controls. Negative control cells were killed with 70% methanol. Positive (+) control cells were incubated in RPMI medium (untreated). […] of AlamarBlue was added to the cells, and readings were taken after 24 hours, 48 hours, 72 hours, and 96 hours using a fluorimeter (excitation 544/transmission 590 nm).
In choosing a peptide for possible treatment of a given indication it is important to match the therapeutic activity and specificity of the peptide with its possible toxic properties.
The protocols for WBC and WI38 stimulation have been discussed above. The RBC protocol follows Table 24.

[10] = system: MCF7 line of breast cancer cells; settings: for MCF7 LD50: agent alone; for Active agent LD50 on MCF7 cells: Total conc.: peptide plus tamoxifen concentration at LD50; for Active agent LD50 on MCF7 cells: Peptide conc.: peptide with tamoxifen, peptide concentration at LD50; for Active agent LD50 on MCF7 cells: Tamox. conc.: tamoxifen concentration at LD50 (peptide with tamoxifen; tamoxifen alone in its own line)
[11] = Synergy of Shiva-1 and lysozyme, percent viability; type: cell-based, Pseudomonas aeruginosa; settings: Pseudomonas aeruginosa
Procedure: The percent viability of Pseudomonas aeruginosa was determined relative to blank controls.

[12] = Synergy of Shiva-1 and lysozyme, percent viability; type: cell-based, Staphylococcus intermedius
Procedure: (§4) The percent viability of gram positive S. intermedius 19930, S. intermedius 20034, and S. aureus was determined relative to blank controls.

[13] = Synergy of Shiva-1 and lysozyme, percent viability; type: cell-based, Staphylococcus aureus; settings: S. aureus
Procedure: as §4

[14] = pH 7, hemolytic assay, concentration at 50% hemolysis, 1 hour at 37° C., read-out: LD50
[15] = LD50 WI38, WI38 normal lung fibroblast line, MTT, 24 hours with peptide
[16] = pH 7, Table 41, lower part, read-out: RBC LD50
[17] = WI38 LD50, Table 41, lower part

## FALALKALKKLLKKLKKLAKKAL-NH2 [P24]
In vitro [1]; [14]
  HC50 at 1 h: 10 µg/mL
SW480
  LD50 SW480: 38 µg/mL
MCF7
  LD50 MCF7: 26 µg/mL
HeLaS3
  HeLaS3 LD50: 145 µg/mL
H1299
  H1299 LD50: 72 µg/mL
BMKC
  LD50 BMKC: 85 µg/mL
PC3
  PC3 LD50: 38 µg/mL
P. aeruginosa
  MIC Nal-comb.: 624 µg/mL
P. aeruginosa H374; MIC of chloramphenicol with peptide at ¼ MIC
  MIC Cm-comb.: 16 µg/mL
P. aeruginosa H374; MIC of nalidixic acid with peptide at ¼ MIC
  MIC Nal-comb.: 5000 µg/mL
P. aeruginosa H374; chloramphenicol + peptide at ¼ MIC
  FIC Index: 1.25
P. aeruginosa H374; nalidixic acid + peptide at ¼ MIC, FIC=0.25+MIC comb/MIC alone
  FIC Index: 1.25
P. aeruginosa H774
  FIC Index: 1.25
WI38
  WI38 LD50: 55 µg/mL
In vitro [2]; [15]
  CC50 at 24 h: 55 µg/mL
[3]
  Solubility: Precipitated
Pseudomonas aeruginosa; first of two columns
  MIC 30 min treatment: 40 µg/mL
  MIC 2 hr treatment: 20 µg/mL
Pseudomonas aeruginosa; second of two columns
  MIC 30 min treatment: 20 µg/mL
  MIC 2 hr treatment: 20 µg/mL

## FAKALAKLAKKLL-NH2 [P92]
[4]
  activity against tr Pseudomonas 960890198-3c: 50
[5]
  activity against ts Pseudomonas 27853: 63
In vitro [1]; [14]
  HC50 at 1 h: 300 µg/mL
SW480
  LD50 SW480: 51 µg/mL
MCF7
  LD50 MCF7: 23 µg/mL
HeLaS3
  HeLaS3 LD50: 670 µg/mL
H1299
  H1299 LD50: 25 µg/mL
BMKC
  LD50 BMKC: 46 µg/mL
PC3
  PC3 LD50: 83 µg/mL
[6]
  paerug9027 (MIC): 5 µg/mL
[7]
  staph6538 (MIC): 5 µg/mL
WI38
  WI38 LD50: 43 µg/mL
In vitro [2]; [15]
  CC50 at 24 h: 43 µg/mL
[8]
  yeast (MIC or MFC): 50 µg/mL

## KLAKKLAKLAKLAKAL-OH [121 (160)]
In vitro [1]; [16]
  HC50 at 1 h: > 1000 µg/mL
MCF7
  MCF7 LD50: 240 µg/mL
[9]
  CC50: 900 µg/mL
In vitro [2]; [17]
  CC50 at 24 h: 700 µg/mL
[10]
  MCF7 LD50: 240 µg/mL
  Active agent LD50 on MCF7 cells: Total conc.: 14.7 µg/mL
  Active agent LD50 on MCF7 cells: Peptide conc.: 11 µg/mL
  Active agent LD50 on MCF7 cells: Tamox. conc.: 3.7 µg/mL

## MPRWRLFRRIDRVGKQIKQGILRAGPAIALVGDARAVG [Shiva-1]
[11]
  viability at 0.01 µM: 100%
  viability at 0.1 µM: 69.6%
  viability at 1 µM: 37.9%
  viability at 5 µM: 1.5%
  viability at 25 µM: 0%
[12]; S. intermedius 19930
  viability at 0.01 µM: 100%
  viability at 0.1 µM: 81.8%
  viability at 0.5 µM: 65%
  viability at 1 µM: 42.1%
  viability at 5 µM: 35.2%
  viability at 10 µM: 1.2%
  viability at 50 µM: 0%
[12]; S. intermedius 20034
  viability at 0.01 µM: 100%
  viability at 0.5 µM: 80%
  viability at 5 µM: 4.1%
  viability at 50 µM: 0%
[13]
  viability at 0.01 µM: 100%
  viability at 0.1 µM: 100%
  viability at 0.5 µM: 50.1%
  viability at 1 µM: 24.4%
  viability at 5 µM: 15.9%
  viability at 10 µM: 4.5%
  viability at 50 µM: 1.6%

## FALALKALKKAL-NH2 [106 (144)]
In vitro [1]; [16]
  HC50 at 1 h: 600 µg/mL
MCF7
  MCF7 LD50: 310 µg/mL
[9]
  CC50: 320 µg/mL
In vitro [2]; [17]
  CC50 at 24 h: 740 µg/mL
[10]
  MCF7 LD50: 310 µg/mL
  Active agent LD50 on MCF7 cells: Total conc.: 42.7 µg/mL
  Active agent LD50 on MCF7 cells: Peptide conc.: 35 µg/mL
  Active agent LD50 on MCF7 cells: Tamox. conc.: 7.7 µg/mL
